Where “and” joins values, the source holds several entries; their conditions need not be identical. Identical values can stand only once.
What was measured:
Mouse recombinant SMOX = biological target: T1, Mouse recombinant SMOX (Mus musculus, UniProt Q99K82); experiment: SMOX inhibition assay; assay type: biochemical
T1 construct: gift: Paolo Mariottini, Department of Biology, University of Roma
Protocol: Mouse recombinant SMOX [4] was provided by Paolo Mariottini (Department of Biology, University of Roma). The biochemical activity was measured by its ability to oxidize spermine (specific substrate for SMOX) and produce H2O2 using a horseradish peroxidase coupled assay. The assay buffer for the mSMOX reaction was 100 mM Sodium Phosphate pH 8.0. The inhibition was monitored during 10 min in the presence of KM spermine peptide.

Human recombinant IL-4I1 = biological target: T2, Human recombinant IL-4I1 (Homo sapiens, UniProt Q96RQ9); experiment: IL4I1 inhibition assay; assay type: biochemical
T2 construct: purchased RD Systems 5684-AO-020
T2 sequence (Q96RQ9 22-567): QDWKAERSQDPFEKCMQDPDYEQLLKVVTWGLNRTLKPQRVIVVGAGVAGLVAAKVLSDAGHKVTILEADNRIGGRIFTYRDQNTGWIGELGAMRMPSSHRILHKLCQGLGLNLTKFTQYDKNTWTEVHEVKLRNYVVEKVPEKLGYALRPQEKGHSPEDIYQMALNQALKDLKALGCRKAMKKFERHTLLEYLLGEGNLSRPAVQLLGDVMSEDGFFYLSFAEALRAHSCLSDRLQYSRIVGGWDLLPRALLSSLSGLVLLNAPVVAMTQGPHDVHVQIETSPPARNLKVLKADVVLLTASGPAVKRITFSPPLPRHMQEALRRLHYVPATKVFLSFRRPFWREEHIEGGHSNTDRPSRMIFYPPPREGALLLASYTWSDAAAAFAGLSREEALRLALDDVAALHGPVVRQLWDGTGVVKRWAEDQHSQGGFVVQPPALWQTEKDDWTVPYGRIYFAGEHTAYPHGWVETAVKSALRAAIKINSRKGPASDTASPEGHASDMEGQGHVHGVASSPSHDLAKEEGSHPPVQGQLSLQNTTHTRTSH
Protocol: Human recombinant IL-4I1 was purchased from RD Systems (Ref. 5684-AO-020). The biochemical activity was measured by its ability to oxidize phenylalanine (specific substrate for IL-4I1; Sigma, P2126) and liberate H2O2 was measured in a coupled horseradish peroxidase assay using Amplex Red reagent as a substrate, as described in the KDM1A assay. The IL4I1 assay buffer was 50 mM Sodium Phosphate pH 7.0. Inhibition of IL-4I1 was monitored during 30 min in the presence of KM phenylalanine peptide at the KMapp of IL-4I1.

KDM1A [1] = experiment: KDM1A target engagement in brain cortex (chemoprobe ELISA); assay type: in vivo, SAMP8 mice; details: end of 2 month treatment
Protocol: (§1) Native protein extracts of cells or tissues were obtained in presence of 25 nM OG-881 chemoprobe according the protocol described in Mascaró et al..
(§2) Luminescent ELISA: for quantification of total amount of KDM1A protein (TOTAL KDM1A), Luminunc Plates Maxisorp (NUNC; #436110) were coated with a monoclonal anti-KDM1A antibody (Abcam; #ab53269) at 2 µg/mL in PBS. For quantification of the fraction not bound to inhibitor (FREE KDM1A), plates were coated with streptavidin (Promega Biotech Ibérica; #Z7041) at 10 µg/mL in PBS. Coating was performed at 4°C O/N. Wells were washed 3 times in PBS, 0.1% Tween-20 and blocked with PBS-BSA 1% (Sigma; #A3059) for 2 hr. A KDM1A calibration curve of full length rKDM1A (Active Motif; #31334) diluted in PBS was included in each plate. Plates were then incubated 1 hr at RT and washed 5 times. […] Plates were centrifuged during 30 sec to 1,500 x g, shaken for 1 min at 100rpm and incubated inside the micropate reader (Infinite 200, Tecan) for 3 min at 25 °C. The relative luminescence units (RLU) readouts were acquired using a 1000 msec integration time and 150 msec settle time.
(§3) All assays were run as triplicate technical replicates (n = 3). After raw data processing (robust elimination of outliers according to Grubbs criteria and subtraction of blank signal on technical replicates), the target engagement was calculated as […]

[2] = test system: Cl- channel (GABA-gated) (antagonist radioligand); experiment: CEREP Diversity Panel; assay type: binding; set-up: dose or concentration left out as unconfirmed
Protocol: (§4) […]. MAO-A inhibition at 10 μM was 37%, in line with internal data.

[3] = test system: GABA transporter (antagonist radioligand); experiment: CEREP Diversity Panel; assay type: binding; set-up: dose or concentration left out as unconfirmed
Protocol: as §4

[4] = test system: alpha 1 (non-selective) (antagonist radioligand); experiment: CEREP Diversity Panel; assay type: binding; set-up: dose or concentration left out as unconfirmed
Protocol: as §4

KDM1A [5] = biological target: KDM1A (Homo sapiens, UniProt O60341); experiment: Chemoprobe based KDM1A target engagement in THP-1 cells; assay type: cell-based; set-up: Native protein extracts of cells or tissues were obtained in presence of 25 nM OG-881 chemoprobe; endogenous in cells; host or cells: THP-1; details: THP-1 cells treated 24 hr
Protocol: as §1, §2, §3

T1 sequence (Q99K82 whole entry): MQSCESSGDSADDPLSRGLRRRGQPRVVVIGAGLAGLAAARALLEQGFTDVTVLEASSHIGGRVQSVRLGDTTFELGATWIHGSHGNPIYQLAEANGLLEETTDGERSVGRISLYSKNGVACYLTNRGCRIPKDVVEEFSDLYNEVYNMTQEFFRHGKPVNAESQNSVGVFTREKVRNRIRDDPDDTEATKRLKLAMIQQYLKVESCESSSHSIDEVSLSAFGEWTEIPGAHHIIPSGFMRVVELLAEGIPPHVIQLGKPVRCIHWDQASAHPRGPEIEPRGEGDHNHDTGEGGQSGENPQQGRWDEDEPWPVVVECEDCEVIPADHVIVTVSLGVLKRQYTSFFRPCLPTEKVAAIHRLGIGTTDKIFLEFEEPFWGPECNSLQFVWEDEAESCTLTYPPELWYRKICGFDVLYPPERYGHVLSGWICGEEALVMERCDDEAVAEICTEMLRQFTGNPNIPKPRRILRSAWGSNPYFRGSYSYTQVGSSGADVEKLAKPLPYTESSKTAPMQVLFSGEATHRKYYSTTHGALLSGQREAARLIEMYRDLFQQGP

With `Nc1nnc(CN[C@@H]2C[C@H]2c2ccc(OCc3ccccc3)cc2)o1` [ORY-2001, vafidemstat] the inhibition at 10 µM (Mouse recombinant SMOX) was 31%, the inhibition at 10 µM (Human recombinant IL-4I1) was 29% and the “KDM1A target engagement in cortex” value (KDM1A [1]) was “correlated with the observed functional effects on memory”. For the same compound, the “% inhibition” value [2] was 31%, the “% inhibition” value [3] was -3% and the “% inhibition” value [4] was 0%. The EC50 (KDM1A [5]) was ~1 nM and 1 nM.

From publication PMC7259601 (PLoS ONE, 2020)
